According to PubChem BioAssay (NCI):
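GI50 = concentration required for 50% inhibition of growth. The concentration for full growth arrest is given as TGI.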

Columns and labels:
Assay in all cases: NCI-60 cell line screen, 384-well format
786-0 renal = test system: 786-0 renal
A498 renal = test system: A498 renal
A549 NSCLC = test system: A549 NSCLC
ACHN renal = test system: ACHN renal
BT-549 breast = test system: BT-549 breast
CAKI-1 renal = test system: CAKI-1 renal
CCRF-CEM leukemia = test system: CCRF-CEM leukemia
COLO 205 colon = test system: COLO 205 colon
DU-145 prostate = test system: DU-145 prostate
EKVX NSCLC = test system: EKVX NSCLC
HCC-2998 colon = test system: HCC-2998 colon
HCT-116 colon = test system: HCT-116 colon
HCT-15 colon = test system: HCT-15 colon
HL-60(TB) leukemia = test system: HL-60(TB) leukemia
HOP-62 NSCLC = test system: HOP-62 NSCLC
HOP-92 NSCLC = test system: HOP-92 NSCLC
HS 578T breast = test system: HS 578T breast
HT29 colon = test system: HT29 colon
IGROV1 ovarian = test system: IGROV1 ovarian
K-562 leukemia = test system: K-562 leukemia
KM12 colon = test system: KM12 colon
LOX IMVI melanoma = test system: LOX IMVI melanoma
M14 melanoma = test system: M14 melanoma
MALME-3M melanoma = test system: MALME-3M melanoma
MCF7 breast = test system: MCF7 breast
MDA-MB-231 breast = test system: MDA-MB-231 breast
MDA-MB-435 melanoma = test system: MDA-MB-435 melanoma
MDA-MB-468 breast = test system: MDA-MB-468 breast
MOLT-4 leukemia = test system: MOLT-4 leukemia
NCI-H226 lung = test system: NCI-H226 lung
NCI-H23 lung = test system: NCI-H23 lung
NCI-H322M lung = test system: NCI-H322M lung
NCI-H460 NSCLC = test system: NCI-H460 NSCLC
NCI-H522 lung = test system: NCI-H522 lung
NCI/ADR-RES ovarian = test system: NCI/ADR-RES ovarian
OVCAR-3 ovarian = test system: OVCAR-3 ovarian
OVCAR-4 ovarian = test system: OVCAR-4 ovarian
OVCAR-5 ovarian = test system: OVCAR-5 ovarian
OVCAR-8 ovarian = test system: OVCAR-8 ovarian
PC-3 prostate = test system: PC-3 prostate
RPMI-8226 leukemia = test system: RPMI-8226 leukemia
RXF 393 renal = test system: RXF 393 renal
SF-268 CNS = test system: SF-268 CNS
SF-295 CNS = test system: SF-295 CNS
SF-539 CNS = test system: SF-539 CNS
SK-MEL-28 melanoma = test system: SK-MEL-28 melanoma
SK-MEL-5 melanoma = test system: SK-MEL-5 melanoma
SK-OV-3 ovarian = test system: SK-OV-3 ovarian
SN12C renal = test system: SN12C renal
SNB-19 CNS = test system: SNB-19 CNS
SNB-75 CNS = test system: SNB-75 CNS
SR leukemia = test system: SR leukemia
SW-620 colon = test system: SW-620 colon
T-47D breast = test system: T-47D breast
TK-10 renal = test system: TK-10 renal
U251 glioblastoma = test system: U251 glioblastoma
UACC-257 melanoma = test system: UACC-257 melanoma
UO-31 renal = test system: UO-31 renal
SK-MEL-2 melanoma = test system: SK-MEL-2 melanoma
UACC-62 melanoma = test system: UACC-62 melanoma

Nc1ccccc1NC(=O)c1ccc(CNC(=O)OCc2cccnc2)cc1
GI50 ([…]-0 renal): 2100 nM
TGI (786-0 renal): 14900 nM
GI50 (A498 renal): 399 nM
TGI (A498 renal): 1860 nM
GI50 (A549 NSCLC): 1910 nM
TGI (A549 NSCLC): 14700 nM
GI50 (ACHN renal): 600 nM
TGI (ACHN renal): 2620 nM
GI50 (BT-549 breast): 467 nM
TGI (BT-549 breast): 3320 nM
GI50 (CAKI-1 renal): 918 nM
TGI (CAKI-1 renal): 2950 nM
GI50 (CCRF-CEM leukemia): 190 nM
TGI (CCRF-CEM leukemia): 368 nM
GI50 (COLO 205 colon): 775 nM
TGI (COLO 205 colon): 2420 nM
GI50 (DU-145 prostate): 338 nM
TGI (DU-145 prostate): 6410 nM
GI50 (EKVX NSCLC): 2860 nM
TGI (EKVX NSCLC): 90500 nM
GI50 (HCC-2998 colon): 558 nM
TGI (HCC-2998 colon): 1940 nM
GI50 (HCT-116 colon): 295 nM
TGI (HCT-116 colon): 1190 nM
GI50 (HCT-15 colon): 1440 nM
TGI (HCT-15 colon): 9090 nM
GI50 (HL-60(TB) leukemia): 206 nM
TGI (HL-60(TB) leukemia): 350 nM
GI50 (HOP-62 NSCLC): 785 nM
TGI (HOP-62 NSCLC): 3620 nM
GI50 (HOP-92 NSCLC): 256 nM
TGI (HOP-92 NSCLC): 920 nM
GI50 (HS 578T breast): 271 nM
TGI (HS 578T breast): 1070 nM
GI50 (HT29 colon): 563 nM
TGI (HT29 colon): 2560 nM
GI50 (IGROV1 ovarian): 363 nM
TGI (IGROV1 ovarian): 1720 nM
GI50 (K-562 leukemia): 185 nM
TGI (K-562 leukemia): 1160 nM
GI50 (KM12 colon): 2240 nM
TGI (KM12 colon): 19900 nM
GI50 (LOX IMVI melanoma): 357 nM
TGI (LOX IMVI melanoma): 1050 nM
GI50 (M14 melanoma): 658 nM
TGI (M14 melanoma): 5660 nM
GI50 (MALME-3M melanoma): 109 nM
TGI (MALME-3M melanoma): 255 nM
GI50 (MCF7 breast): 404 nM
TGI (MCF7 breast): 1940 nM
GI50 (MDA-MB-231 breast): 511 nM
TGI (MDA-MB-231 breast): 2860 nM
GI50 (MDA-MB-435 melanoma): 652 nM
TGI (MDA-MB-435 melanoma): 2400 nM
GI50 (MDA-MB-468 breast): 244 nM
TGI (MDA-MB-468 breast): 713 nM
GI50 (MOLT-4 leukemia): 164 nM
TGI (MOLT-4 leukemia): 303 nM
GI50 (NCI-H226 lung): 1070 nM
TGI (NCI-H226 lung): 4880 nM
GI50 (NCI-H23 lung): 790 nM
TGI (NCI-H23 lung): 4450 nM
GI50 (NCI-H322M lung): 1550 nM
TGI (NCI-H322M lung): 6500 nM
GI50 (NCI-H460 NSCLC): 352 nM
TGI (NCI-H460 NSCLC): 7660 nM
GI50 (NCI-H522 lung): 673 nM
TGI (NCI-H522 lung): 2680 nM
GI50 (NCI/ADR-RES ovarian): 1460 nM
TGI (NCI/ADR-RES ovarian): 4020 nM
GI50 (OVCAR-3 ovarian): 936 nM
TGI (OVCAR-3 ovarian): 3130 nM
GI50 (OVCAR-4 ovarian): 1330 nM
TGI (OVCAR-4 ovarian): 3630 nM
GI50 (OVCAR-5 ovarian): 727 nM
TGI (OVCAR-5 ovarian): 5000 nM
GI50 (OVCAR-8 ovarian): 368 nM
TGI (OVCAR-8 ovarian): 2090 nM
GI50 (PC-3 prostate): 1040 nM
TGI (PC-3 prostate): 16400 nM
GI50 (RPMI-8226 leukemia): 20.5 nM
TGI (RPMI-8226 leukemia): 45.3 nM
GI50 (RXF 393 renal): 239 nM
TGI (RXF 393 renal): 918 nM
GI50 (SF-268 CNS): 220 nM
TGI (SF-268 CNS): 719 nM
GI50 (SF-295 CNS): 878 nM
TGI (SF-295 CNS): 2110 nM
GI50 (SF-539 CNS): 1630 nM
TGI (SF-539 CNS): 14800 nM
GI50 (SK-MEL-28 melanoma): 234 nM
TGI (SK-MEL-28 melanoma): 493 nM
GI50 (SK-MEL-5 melanoma): 243 nM
TGI (SK-MEL-5 melanoma): 457 nM
GI50 (SK-OV-3 ovarian): 1500 nM
TGI (SK-OV-3 ovarian): 5100 nM
GI50 (SN12C renal): 1600 nM
TGI (SN12C renal): 3280 nM
GI50 (SNB-19 CNS): 1780 nM
TGI (SNB-19 CNS): 6060 nM
GI50 (SNB-75 CNS): 1130 nM
TGI (SNB-75 CNS): 13700 nM
GI50 (SR leukemia): 31 nM
TGI (SR leukemia): 105 nM
GI50 (SW-620 colon): 521 nM
TGI (SW-620 colon): 2160 nM
GI50 (T-47D breast): 487 nM
TGI (T-47D breast): 1220 nM
GI50 (TK-10 renal): 441 nM
TGI (TK-10 renal): 3820 nM
GI50 (U251 glioblastoma): 607 nM
TGI (U251 glioblastoma): 1910 nM
GI50 (UACC-257 melanoma): 375 nM
TGI (UACC-257 melanoma): 1380 nM
GI50 (UO-31 renal): 1660 nM
TGI (UO-31 renal): 13100 nM

O=C1CCc2c(Oc3ccc4c(c3)[C@H]3[C@@H](O4)[C@@H]3c3nc4ccc(C(F)(F)F)cc4[nH]3)ccnc2N1
GI50 ([…]-0 renal): 3170 nM
TGI (786-0 renal): > 100000 nM
GI50 (ACHN renal): 241 nM
TGI (ACHN renal): 592 nM
GI50 (CAKI-1 renal): 1260 nM
TGI (CAKI-1 renal): > 100000 nM
GI50 (CCRF-CEM leukemia): 1200 nM
TGI (CCRF-CEM leukemia): 3050 nM
GI50 (COLO 205 colon): 18 nM
TGI (COLO 205 colon): 348 nM
GI50 (DU-145 prostate): 2940 nM
TGI (DU-145 prostate): > 100000 nM
GI50 (EKVX NSCLC): 1640 nM
TGI (EKVX NSCLC): 8380 nM
GI50 (HCC-2998 colon): 1200 nM
TGI (HCC-2998 colon): 5980 nM
GI50 (HCT-116 colon): 494 nM
TGI (HCT-116 colon): 3580 nM
GI50 (HCT-15 colon): 2420 nM
TGI (HCT-15 colon): > 100000 nM
GI50 (HL-60(TB) leukemia): 85.7 nM
TGI (HL-60(TB) leukemia): 210 nM
GI50 (HOP-92 NSCLC): 1650 nM
TGI (HOP-92 NSCLC): 3910 nM
GI50 (HS 578T breast): 1600 nM
TGI (HS 578T breast): 7130 nM
GI50 (HT29 colon): 206 nM
TGI (HT29 colon): > 100000 nM
GI50 (IGROV1 ovarian): 789 nM
TGI (IGROV1 ovarian): 7130 nM
GI50 (K-562 leukemia): 20.1 nM
TGI (K-562 leukemia): 50 nM
GI50 (LOX IMVI melanoma): 113 nM
TGI (LOX IMVI melanoma): 256 nM
GI50 (M14 melanoma): 13.4 nM
TGI (M14 melanoma): 119 nM
TGI (MALME-3M melanoma): 32.2 nM
GI50 (MCF7 breast): 294 nM
TGI (MCF7 breast): 1170 nM
GI50 (MDA-MB-435 melanoma): 30.2 nM
TGI (MDA-MB-435 melanoma): 169 nM
GI50 (MDA-MB-468 breast): 1060 nM
TGI (MDA-MB-468 breast): 3330 nM
GI50 (MOLT-4 leukemia): 1140 nM
TGI (MOLT-4 leukemia): 2380 nM
GI50 (NCI-H23 lung): 169 nM
TGI (NCI-H23 lung): 454 nM
GI50 (NCI-H460 NSCLC): 1670 nM
TGI (NCI-H460 NSCLC): > 100000 nM
GI50 (NCI-H522 lung): 154 nM
TGI (NCI-H522 lung): 292 nM
GI50 (OVCAR-3 ovarian): 3570 nM
TGI (OVCAR-3 ovarian): > 100000 nM
GI50 (OVCAR-5 ovarian): 793 nM
TGI (OVCAR-5 ovarian): > 100000 nM
GI50 (RPMI-8226 leukemia): 166 nM
TGI (RPMI-8226 leukemia): 304 nM
GI50 (RXF 393 renal): 188 nM
TGI (RXF 393 renal): 331 nM
GI50 (SK-MEL-2 melanoma): 258 nM
TGI (SK-MEL-2 melanoma): 1210 nM
GI50 (SK-MEL-5 melanoma): 54.9 nM
TGI (SK-MEL-5 melanoma): 1480 nM
GI50 (SN12C renal): 2080 nM
TGI (SN12C renal): > 100000 nM
GI50 (SNB-19 CNS): 4790 nM
TGI (SNB-19 CNS): > 100000 nM
GI50 (SNB-75 CNS): 4410 nM
TGI (SNB-75 CNS): > 100000 nM
GI50 (T-47D breast): 1690 nM
TGI (T-47D breast): 6940 nM
GI50 (TK-10 renal): 1830 nM
TGI (TK-10 renal): 8270 nM
GI50 (U251 glioblastoma): 3390 nM
TGI (U251 glioblastoma): > 100000 nM
GI50 (UACC-257 melanoma): 43.6 nM
TGI (UACC-257 melanoma): 347 nM
GI50 (UACC-62 melanoma): 17.3 nM
TGI (UACC-62 melanoma): 119 nM
